Reference: patent US6541468B1, “Indolocarbazole derivatives useful for the treatment of neurodegenerative diseases and cancer” (Bayer Corporation, priority 1998, dated 2003)

Legend:
[1] = biological target: T1, PK40 (ERK2) (Homo sapiens, UniProt P28482); assay: PK40(ERK2) kinase inhibition assay; format: biochemical; settings: 0.25 mM ATP, myelin basic protein substrate
T1 construct: made in house; host or cells: E. coli BL21 pLysS (printed 'B121pLysS'), pET-14b vector
Procedure: Preparation of ERK2: Recombinant human ERK2 with a N-terminal histidine (his) tag was prepared as follows: An ERK2 cDNA clone was amplified from a human frontal cortex library by PCR with primers matching the published human sequence [Gonzales F. A. et al, FEBS Lett. 304, 170-178 (1992)]. The histidine tag was introduced by site-directed mutagenesis. The cDNA was cloned into a pET-14b (Novagen) vector and transfected into the E. coli lysogen strain B121pLysS. Single colony transformants were grown in LB medium containing […] chloramphenicol to maintain pLysS and […] to an O.D.600 OF 0.6. The culture was then induced with 0.4 mM IPTG for 4 hours. The expressed ERK2 protein was then analyzed on a 10% SDS PAGE by both coomassie blue staining and anti-ERK Western blotting. […]
Enzyme, substrate and inhibitor were preincubated for 5-10 min at 4° C. in assay buffers containing a final concentration of 2% DMSO before initiating the reaction with 0.25 mM γ^2P-ATP. […] The filtermats were washed twice for several hours with TCA/PPA until all background radioactivity was removed. Precipitable counts were quantitated directly on the filtermat with a microbeta scintillation counter system (Wallac-Pharmacia). Inhibitor data were subjected to curve fitting and IC50 values were calculated from these curves using the GraphIt program.

[2] = biological target: T2, PKA (Bos taurus, UniProt P00517); assay: PKA catalytic subunit inhibition assay; format: biochemical, bovine; settings: footnote a) on the CII value: partial inhibition only
T2 construct: The catalytic subunit of bovine heart PKA was obtained commercially from Sigma; purchased Sigma; host or cells: bovine heart
Procedure: Preparation of cAMP-dependent Kinase: The catalytic subunit of bovine heart PKA was obtained commercially from Sigma.
The catalytic subunit of PKA was assayed in 50 μl 25 mM HEPES, pH 7.0, 10 mM MgCl2, 1 mM EDTA, 1 mM DTT, using 70 ng PKA and 0.1 mg/mL human recombinant tau protein as a substrate.
(§1) Enzyme, substrate and inhibitor were preincubated for 5-10 min at 4° C. in assay buffers containing a final concentration of 2% DMSO before initiating the reaction with 0.25 mM γ^2P-ATP. Samples were incubated for 30 min at 37° C. and reactions were terminated with 10% trichloracetic acid/2% sodium pyrophosphate (TCA/PPA), followed by filtration over a glass fiber filtermat (type A) with a cell harvester (Tomtec). The filtermats were washed twice for several hours with TCA/PPA until all background radioactivity was removed. Precipitable counts were quantitated directly on the filtermat with a microbeta scintillation counter system (Wallac-Pharmacia). Inhibitor data were subjected to curve fitting and IC50 values were calculated from these curves using the GraphIt program.

[3] = tested on: T3, PKC; assay: PKC inhibition assay; format: biochemical, rat; settings: footnote a) on the CII value: partial inhibition only
T3 construct: PKC was purified from rat brain using the method of Woodgett J. R. and Hunter T., J. Biol. Chem 262, 4836-4843 (1987)
Procedure: Preparation of PKC: PKC was purified from rat brain using the method of Woodgett J. R. and Hunter T., J. Biol. Chem 262, 4836-4843 (1987).
PKC was assayed in 50μ 25 mM HEPES, pH 7.0, 10 mM MgCl2, 2 mM CaCl2, 1 mM EDTA, 1 mM DTT, 0.25 mM ATP, 0.2 mg/mL phosphatidylserine, using 20 ng PKC and 0.08 mg/mL histone III-S as a substrate.
as §1

T1 sequence (P28482 whole entry): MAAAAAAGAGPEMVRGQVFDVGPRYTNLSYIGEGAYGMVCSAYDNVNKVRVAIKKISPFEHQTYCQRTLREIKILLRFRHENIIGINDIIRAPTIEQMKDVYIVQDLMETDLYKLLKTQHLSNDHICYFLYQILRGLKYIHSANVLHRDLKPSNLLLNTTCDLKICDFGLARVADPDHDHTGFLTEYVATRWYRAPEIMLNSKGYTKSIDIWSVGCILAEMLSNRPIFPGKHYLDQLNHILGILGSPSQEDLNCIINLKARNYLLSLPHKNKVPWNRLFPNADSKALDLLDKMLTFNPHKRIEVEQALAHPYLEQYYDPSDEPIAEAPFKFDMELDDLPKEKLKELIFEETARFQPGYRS

| Compound | IC50 [1] [nM] | IC50 [2] [nM] | IC50 [3] [nM] |
| --- | --- | --- | --- |
| CNC(=O)[C@]1(O)CC2CC1n1c3ccccc3c3c4c(c5c6ccccc6n2c5c31)C(=O)NC4=O (stereo partly drawn) [CII, 9,12-Methano-1H-diindolo[1,2,3-fg:3′,2′,1′-kl]pyrrolo[3,4-I][1,6] benzodiazocine-10-carboxamide, 2,3,9,10,11,12-hexahydro-10-hydroxy-N-methyl-1,3-dioxo-(9α,10β,12α)] | 44 | 650 | 650 |
| COC(=O)[C@@]1(O)C[C@H]2C[C@@H]1n1c3ccccc3c3c4c(c5c6ccccc6n2c5c31)C(=O)NC4=O (relative stereo) [CIII, 9,12-Methano-1H-diindolo[1,2,3-fg:3′,2′,1′-kl]pyrrolo[3,4-I][1,6] benzodiazocine-10-carboxylic acid, 2,3,9,10,11,12-hexahydro-10-hydroxy-1,3-dioxomethyl ester, (9α,10β,12α)] | > 30000 | > 100000 | > 100000 |
